Earlier results in publication PMC7553790 (The Journal of Experimental Medicine, 2020).
Read-outs that look alike come from different tables or passages of the source.

Tested on: Aβ42
Conditions: cell-based studies

IC50 (read-out: IC50 of decreasing Aβ42, ref Imbimbo et al., 2007)	IC50 (read-out: IC50 of Aβ42, ref Rogers et al., 2012)	Structure (SMILES)
3.6 µM	–	O=C(O)C1(c2ccc(-c3ccc(Cl)c(Cl)c3)c(F)c2)CC1 [CHF5074, 1-(3′,4′-Dichloro-2-fluoro[1,1′-biphenyl]-4-yl)-cyclopropanecarboxylic acid]
–	> 0.02 µM	O=C(O)[C@H](CC1CCC1)c1cc(Cl)c(OCC(F)(F)F)c(-c2ccc(C(F)(F)F)cc2)c1 [EVP-0015962]
